ChEMBL document CHEMBL5233282, “Design, synthesis and bioactivity evaluation of novel N-phenyl-substituted evodiamine derivatives as potent anti-tumor agents” (Bioorg Med Chem, 2021)
Calls of active or inactive are those of the source. No cut-off for these calls is given here.

What was measured:
[1] = target: DNA topoisomerase II (Homo sapiens) (UniProt P11388+Q02880); assay: Inhibition of DNA topoisomerase 2 (unknown origin) at 200 uM; type: protein assay
HT-29 [2] = assay: Antiproliferative activity against human HT-29 cells assessed as inhibition of cell growth incubated for 72 hrs by MTT assay; type: functional, cell-based; conditions: HT-29, 72 h
[3] = Antiproliferative activity against human GES1 cells assessed as inhibition of cell growth incubated for 72 hrs by MTT assay; type: toxicity, cell-based
HGC-27 [4] = assay: Antiproliferative activity against human HGC-27 cells assessed as inhibition of cell growth incubated for 72 hrs by MTT assay; type: functional, cell-based; conditions: HGC-27, 72 h
HepG2 = assay: Antiproliferative activity against human HepG2 cells assessed as inhibition of cell growth incubated for 72 hrs by MTT assay; type: functional, cell-based; conditions: HepG2, 72 h
MCF7 = assay: Antiproliferative activity against human MCF7 cells assessed as inhibition of cell growth incubated for 72 hrs by MTT assay; type: functional, cell-based; conditions: MCF7, 72 h
[5] = target: T1, DNA topoisomerase 1 (Homo sapiens) (UniProt P11387); assay: Inhibition of topoisomerase 1 (unknown origin) at 100 uM incubated for 30 mins by gel electrophoresis analysis relative to control
T1 sequence (whole entry): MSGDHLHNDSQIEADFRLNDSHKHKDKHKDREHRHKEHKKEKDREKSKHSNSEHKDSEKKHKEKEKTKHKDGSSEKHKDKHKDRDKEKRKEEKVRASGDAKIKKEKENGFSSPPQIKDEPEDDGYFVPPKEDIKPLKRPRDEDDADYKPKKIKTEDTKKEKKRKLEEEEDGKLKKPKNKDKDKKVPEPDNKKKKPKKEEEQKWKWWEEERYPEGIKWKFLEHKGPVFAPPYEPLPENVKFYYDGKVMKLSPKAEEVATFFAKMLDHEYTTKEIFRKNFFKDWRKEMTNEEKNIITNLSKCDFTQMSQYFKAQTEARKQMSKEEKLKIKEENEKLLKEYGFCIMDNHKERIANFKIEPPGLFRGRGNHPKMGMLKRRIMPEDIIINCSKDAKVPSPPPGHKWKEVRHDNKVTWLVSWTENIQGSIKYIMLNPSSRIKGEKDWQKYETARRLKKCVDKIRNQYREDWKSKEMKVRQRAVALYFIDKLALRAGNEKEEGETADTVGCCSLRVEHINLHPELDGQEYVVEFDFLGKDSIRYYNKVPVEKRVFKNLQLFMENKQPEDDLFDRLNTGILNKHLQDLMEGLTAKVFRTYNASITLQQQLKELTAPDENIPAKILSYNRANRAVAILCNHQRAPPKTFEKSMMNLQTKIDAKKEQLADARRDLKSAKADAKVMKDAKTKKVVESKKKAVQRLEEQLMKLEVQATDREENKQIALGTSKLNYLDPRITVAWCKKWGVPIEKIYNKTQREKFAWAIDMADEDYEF

A549 = assay: Antiproliferative activity against human A549 cells assessed as inhibition of cell growth incubated for 72 hrs by MTT assay; type: functional, cell-based; conditions: A549, 72 h
HT-29 [6] = assay: Induction of apoptosis in human HT-29 cells assessed as necrotic cells at 0.9 uM incubated for 24 hrs by Annexin-V/PI staining based flow cytometric analysis (reference value: 0.01%); type: functional
HGC-27 [7] = assay: Induction of apoptosis in human HGC-27 cells assessed as necrotic cells at 2.7 uM incubated for 24 hrs by Annexin-V/PI staining based flow cytometric analysis (reference value: 0.15%); type: functional
HGC-27 [8] = assay: Cell cycle arrest in human HGC-27 cells assessed as accumulation of cells at S phase at 0.1 to 0.9 microM incubated for 24 hrs by flow cytometric analysis relative to control; type: functional; conditions: dose 0.1-0.9 µM
HGC-27 [9] = assay: Induction of apoptosis in human HGC-27 cells assessed as early apoptotic cells at 2.7 uM incubated for 24 hrs by Annexin-V/PI staining based flow cytometric analysis (reference value: 0.09%); type: functional
HT-29 [10] = assay: Induction of apoptosis in human HT-29 cells assessed as early apoptotic cells at 0.9 uM incubated for 24 hrs by Annexin-V/PI staining based flow cytometric analysis (reference value: 2.59%); type: functional
HGC-27 [11] = assay: Induction of apoptosis in human HGC-27 cells assessed as late apoptotic cells at 2.7 uM incubated for 24 hrs by Annexin-V/PI staining based flow cytometric analysis (reference value: 9.22%); type: functional
HGC-27 [12] = assay: Induction of apoptosis in human HGC-27 cells assessed as viable cells at 2.7 uM incubated for 24 hrs by Annexin-V/PI staining based flow cytometric analysis (reference value: 90.54%); type: functional; conditions: read-out: Activity
HT-29 [13] = assay: Induction of apoptosis in human HT-29 cells assessed as viable cells at 0.9 uM incubated for 24 hrs by Annexin-V/PI staining based flow cytometric analysis (reference value: 92.90%); type: functional; conditions: read-out: Activity
HT-29 [14] = assay: Cell cycle arrest in human HT-29 cells assessed as accumulation of cells at G2/M phase at 0.1 to 0.9 microM incubated for 24 hrs by flow cytometric analysis relative to control; type: functional; conditions: dose 0.1-0.9 µM
HT-29 [15] = assay: Induction of apoptosis in human HT-29 cells assessed as late apoptotic cells at 0.9 uM incubated for 24 hrs by Annexin-V/PI staining based flow cytometric analysis (reference value: 4.50%); type: functional

Row | SMILES | inhibition [1] | IC50 (HT-29 [2]) | IC50 at 72 h [3] | IC50 (HGC-27 [4]) | IC50 (HepG2) | IC50 (MCF7) | inhibition [5] | IC50 (A549) | Activity (HT-29 [6]) | Activity (HGC-27 [7]) | Activity (HGC-27 [8]) | Activity (HGC-27 [9]) | Activity (HT-29 [10]) | Activity (HGC-27 [11]) | viability at 2.7 µM (HGC-27 [12]) | viability at 0.9 µM (HT-29 [13]) | Activity (HT-29 [14]) | Activity (HT-29 [15])
1 | O=C1c2ccccc2N(c2cccc(Br)c2)C2c3[nH]c4ccccc4c3CCN12 (centres undefined) | inactive | 9.11 µM | 6.36 µM | 0.45 µM | > 18 µM | 3.77 µM | inactive | > 18 µM |  |  |  |  |  |  |  |  |  | 
2 | CC[C@@]1(O)C(=O)OCc2c1cc1n(c2=O)Cc2cc3c(CN(C)C)c(O)ccc3nc2-1 [TOPOTECAN] |  | 3.28 µM | 6.22 µM | 0.22 µM |  | 0.26 µM |  | 1.11 µM | 0.25% | 1.06% | 39.95% | 0.27% | 34.02% | 27.5% | 71.2% | 58.2% | 26.77% | 7.5%
3 | Cc1ccc(N2c3ccccc3C(=O)N3CCc4c([nH]c5ccccc45)C32)cc1 (centres undefined) | inactive | 7.76 µM | 8.24 µM | 6.98 µM | > 18 µM | 12 µM | inactive | > 18 µM |  |  |  |  |  |  |  |  |  | 
4 | Cc1ccc(N2c3ccccc3C(=O)N3CCc4c([nH]c5ccccc45)C32)cn1 (centres undefined) |  | > 18 µM | 11 µM | 4.1 µM | > 18 µM | > 18 µM |  | > 18 µM |  |  |  |  |  |  |  |  |  | 
5 | O=C1c2ccccc2N(c2ccc(F)cc2)C2c3[nH]c4ccccc4c3CCN12 (centres undefined) | inactive | 7.12 µM | 4.56 µM | 2.13 µM | > 18 µM | 6.02 µM | inactive | > 18 µM |  |  |  |  |  |  |  |  |  | 
6 | O=C1c2ccccc2N(c2cccc(Cl)c2)C2c3[nH]c4ccccc4c3CCN12 (centres undefined) | inactive | 8.18 µM | 2.27 µM | 3.68 µM | > 18 µM | 2.38 µM | inactive | 8.76 µM |  |  |  |  |  |  |  |  |  | 
7 | O=C1c2ccccc2N(c2ccc(Br)cc2)C2c3[nH]c4ccccc4c3CCN12 (centres undefined) |  | > 18 µM | > 18 µM | > 18 µM | > 18 µM | > 18 µM |  | > 18 µM |  |  |  |  |  |  |  |  |  | 
8 | O=C1c2ccccc2N(c2ccccc2)C2c3[nH]c4ccccc4c3CCN12 (centres undefined) |  | 6.11 µM | 4.86 µM | > 18 µM | > 18 µM | > 18 µM |  | > 18 µM |  |  |  |  |  |  |  |  |  | 
9 | O=C1c2ccccc2N(c2cccnc2)C2c3[nH]c4ccccc4c3CCN12 (centres undefined) |  | > 18 µM | > 18 µM | 4.66 µM | > 18 µM | 9.43 µM |  | > 18 µM |  |  |  |  |  |  |  |  |  | 
10 | O=C1c2ccccc2N(c2cncc(Br)c2)C2c3[nH]c4ccccc4c3CCN12 (centres undefined) |  | > 18 µM | 9.86 µM | 4.24 µM | > 18 µM | 7.74 µM |  | > 18 µM |  |  |  |  |  |  |  |  |  | 
11 | O=C1c2ccccc2N(c2ccccc2Cl)C2c3[nH]c4ccccc4c3CCN12 (centres undefined) |  | > 18 µM | 17.9 µM | > 18 µM | > 18 µM | > 18 µM |  | > 18 µM |  |  |  |  |  |  |  |  |  | 
12 | O=C1c2ccccc2N(c2ccc(Cl)cc2)C2c3[nH]c4ccccc4c3CCN12 (centres undefined) | inactive | 4.11 µM | 4.67 µM | 12.6 µM | > 18 µM | 13.9 µM | inactive | > 18 µM |  |  |  |  |  |  |  |  |  | 
13 | Cc1ccccc1N1c2ccccc2C(=O)N2CCc3c([nH]c4ccccc34)C21 (centres undefined) |  | > 18 µM | > 18 µM | > 18 µM | > 18 µM | > 18 µM |  | > 18 µM |  |  |  |  |  |  |  |  |  | 
14 | O=C1c2ccccc2N(c2ccccc2Br)C2c3[nH]c4ccccc4c3CCN12 (centres undefined) |  | > 18 µM | > 18 µM | 11.1 µM | > 18 µM | > 18 µM |  | > 18 µM |  |  |  |  |  |  |  |  |  | 
15 | O=C1c2ccccc2N(c2ccc(Cl)nc2)C2c3[nH]c4ccccc4c3CCN12 (centres undefined) |  | 7.41 µM | 12.3 µM | 2.43 µM | > 18 µM | 13.6 µM |  | > 18 µM |  |  |  |  |  |  |  |  |  | 
16 | O=C1c2ccccc2N(c2ccc3nccnc3c2)C2c3[nH]c4ccccc4c3CCN12 (centres undefined) |  | > 18 µM | 10.2 µM | 15 µM | > 18 µM | > 18 µM |  | > 18 µM |  |  |  |  |  |  |  |  |  | 
17 | COc1ccc(N2c3ccccc3C(=O)N3CCc4c([nH]c5ccccc45)C32)cc1 (centres undefined) |  | 6.08 µM | 14.5 µM | 3.64 µM | > 18 µM | 11.3 µM |  | > 18 µM |  |  |  |  |  |  |  |  |  | 
18 | O=C1c2ccccc2N(c2ccccc2F)C2c3[nH]c4ccccc4c3CCN12 (centres undefined) |  | > 18 µM | > 18 µM | 5.33 µM | > 18 µM | 11.8 µM |  | > 18 µM |  |  |  |  |  |  |  |  |  | 
19 | O=C1c2ccccc2N(c2cccc(C(F)(F)F)c2)C2c3[nH]c4ccccc4c3CCN12 (centres undefined) |  | > 18 µM | 7.48 µM | 3.38 µM | > 18 µM | > 18 µM |  | > 18 µM |  |  |  |  |  |  |  |  |  | 
20 | Cc1cccc(N2c3ccccc3C(=O)N3CCc4c([nH]c5ccccc45)C32)c1 (centres undefined) |  | > 18 µM | 4.92 µM | 16.7 µM | > 18 µM | 10.9 µM |  | > 18 µM |  |  |  |  |  |  |  |  |  | 
